US10322118B2, “Compounds and methods for inhibiting Cif virulence factor” (priority 2012, dated 2019)
Structures can show the parent of a compound that is named as a salt.

What was measured:
[1] = biological target: T1, Cif (Pseudomonas aeruginosa (strain UCBPP-PA14), UniProt A0A0H2ZD27); assay: Primary high throughput screen with fluorogenic substrate CMNGC; format: biochemical; conditions: primary screen; test compounds at 10 μM, 1 μM Cif, 25 μM CMNGC, 60 minutes;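 also: fluorescence of 200 µL reactions in 96-well plates read on a plate reader, inhibitor at tenfold molar excess over Cif enzyme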
[2] = biological target: T1, Cif; assay: Secondary screen (sextuplicate) with fluorogenic substrate CMNGC; format: biochemical;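 also: purified enzyme assay in 96-well plates, 200 µL volume, fluorescence recorded each minute across a 60 min reaction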
[3] = read-out: % Inhibition, Mean ± SD
[4] = read-out: % Inhibition, plate 1
[5] = read-out: % Inhibition, plate 2
[6] = read-out: % Inhibition, plate 3
[7] = read-out: % Inhibition, plate 4
[8] = read-out: % Inhibition, plate 5
[9] = read-out: % Inhibition, plate 6

T1 sequence (A0A0H2ZD27 25-319 limits assumed): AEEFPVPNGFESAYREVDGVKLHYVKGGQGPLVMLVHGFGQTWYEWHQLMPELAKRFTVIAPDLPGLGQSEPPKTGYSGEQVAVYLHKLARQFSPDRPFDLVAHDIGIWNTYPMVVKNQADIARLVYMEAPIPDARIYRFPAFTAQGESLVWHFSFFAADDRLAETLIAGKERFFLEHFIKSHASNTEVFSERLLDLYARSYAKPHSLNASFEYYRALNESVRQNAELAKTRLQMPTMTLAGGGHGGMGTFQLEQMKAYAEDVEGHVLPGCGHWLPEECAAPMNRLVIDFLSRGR

Row | SMILES | inhibition at 10 µM [1] [%] | inhibition at 10 µM [2, 3] [%] | inhibition at 10 µM [2, 4] [%] | inhibition at 10 µM [2, 5] [%] | inhibition at 10 µM [2, 6] [%] | inhibition at 10 µM [2, 7] [%] | inhibition at 10 µM [2, 8] [%] | inhibition at 10 µM [2, 9] [%] | % Inhibition [1] [%] | % Inhibition, Mean ± SD ([2]; secondary screen, 10 μM, mean of six plates) [%] | % Inhibition, plate 1 ([2]; secondary screen, 10 μM, plate number 1) [%] | % Inhibition, plate 2 ([2]; secondary screen, 10 μM, plate number 2) [%] | % Inhibition, plate 3 ([2]; secondary screen, 10 μM, plate number 3) [%] | % Inhibition, plate 4 ([2]; secondary screen, 10 μM, plate number 4) [%] | % Inhibition, plate 5 ([2]; secondary screen, 10 μM, plate number 5) [%] | % Inhibition, plate 6 ([2]; secondary screen, 10 μM, plate number 6) [%]
1 | C[C@]12CC[C@H]3C(=CCc4cc(O)ccc43)[C@@H]1CCC2=O [Equilin] | 71 |  |  |  |  |  |  |  |  |  |  |  |  |  |  | 
2 | C[C@]12CC[C@@H]3c4ccc(O)cc4CC[C@H]3[C@@H]1CC[C@@H]2O [Estradiol] | 39 | 4 ± 5 | 4 | 5 | 5 | 6 | 8 | -6 |  |  |  |  |  |  |  | 
3 | C=CCc1ccc(O)c(OC)c1 [Eugenol] | 32 | 3 ± 4 | 4 | 0 | 7 | 4 | 6 | -4 |  |  |  |  |  |  |  | 
4 | Cc1c(Nc2ncccc2C(=O)O)cccc1C(F)(F)F [Flunixin meglumine] | 32 | 14 ± 5 | 13 | 15 | 14 | 18 | 19 | 4 |  |  |  |  |  |  |  | 
5 | CC(=O)[C@@]1(O)CC[C@H]2[C@@H]3C[C@H](C)C4=CC(=O)C=C[C@]4(C)[C@@]3(F)[C@@H](O)C[C@@]21C [Fluorometholone] | 31 | 18 ± 2 | 18 | 15 | 19 | 16 | 21 | 16 |  |  |  |  |  |  |  | 
6 | CC(O)CN1CCN(CC(=O)[O-])CCN(CC(=O)[O-])CCN(CC(=O)[O-])CC1.[Gd+3] (stereo not shown) [Gadoteridol] |  |  |  |  |  |  |  |  | 34 | 11 ± 5 | 7 | 3 | 10 | 13 | 16 | 15
7 | CC(C)Cc1ccc(C(C)C(=O)O)cc1 (stereo not shown) [Ibuprofen] | 48 | 7 ± 5 | 1 | 6 | 5 | 8 | 15 | 7 |  |  |  |  |  |  |  | 
8 | CC(C(=O)O)c1cccc(C(=O)c2ccccc2)c1 (stereo not shown) [Ketoprofen] | 34 | 9 ± 5 | 2 | 14 | 9 | 8 | 15 | 4 |  |  |  |  |  |  |  | 
9 | Cc1cccc(Nc2ccccc2C(=O)O)c1C [Mefenamic acid] | 48 | 16 ± 8 | 5 | 24 | 17 | 22 | 20 | 6 |  |  |  |  |  |  |  | 
10 | O=C([O-])c1ccccc1-c1c2cc(Br)c(=O)cc-2oc2[c]([Hg+])c([O-])c(Br)cc12.[Na+].[Na+].[OH-] [Merbromin] |  |  |  |  |  |  |  |  | 47 |  |  |  |  |  |  | 
11 | S=c1nc[nH]c2nc[nH]c12 [Mercaptopurine] | 32 | 13 ± 5 | 5 | 15 | 19 | 15 | 15 | 11 |  |  |  |  |  |  |  | 
12 | CCCCCCCCCCCCCCCCOP(=O)([O-])OCC[N+](C)(C)C [Miltefosine] | 34 | 8 ± 4 | 4 | 3 | 11 | 10 | 11 | 11 |  |  |  |  |  |  |  | 
13 | Cc1nccnc1N1CCCCC1 [Modaline sulfate] | 34 | 12 ± 3 | 10 | 7 | 12 | 12 | 13 | 17 |  |  |  |  |  |  |  | 
14 | NCC(O)c1ccc(O)cc1 (stereo not shown) [Octopamine hydrochloride] | 42 | 11 ± 6 | 1 | 6 | 12 | 9 | 18 | 17 |  |  |  |  |  |  |  | 
15 | Nc1nc2c(ncn2CCC(CO)CO)c(=O)[nH]1 [Penciclovir] | 45 | 0 | -11 | 1 | 2 | 3 | 7 | -3 |  |  |  |  |  |  |  | 
